What was measured:
Assay type in all cases: in vivo
[1] = tested on: velvetleaf (Abutilon theophrasti); experiment: Test A pre-/postemergence: velvetleaf
How it was run: (§1)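 Rating scale 0–100 (100 = complete control), visual, ~10 days after application in the greenhouse. Applications: preemergence directed soil spray; postemergence at 1–2 leaves.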

[2] = tested on: pigweed (Amaranthus retroflexus); experiment: Test C pre-/postemergence: pigweed; details: Preemergence
How it was run: (§2)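 Preemergence on seeds in loam/sand, postemergence on 2–18 cm (1–4-leaf) plants in peat-based medium; compounds in non-phytotoxic solvent with surfactant. After 13–15 days in greenhouse, visual rating versus controls, 0 (no effect) to 100 (complete control).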

[3] = tested on: galium (catchweed bedstraw, Galium aparine); experiment: Test C pre-/postemergence: galium; details: Preemergence
How it was run: as §2

[4] = tested on: wild oat (Avena fatua); experiment: Test C pre-/postemergence: wild oat; details: Preemergence
How it was run: as §2

[5] = tested on: johnsongrass (Sorghum halepense); experiment: Test C pre-/postemergence: johnsongrass; details: Preemergence
How it was run: as §2

[6] = tested on: ragweed (common ragweed, Ambrosia elation); experiment: Test C pre-/postemergence: ragweed; details: Preemergence
How it was run: as §2

[7] = tested on: velvetleaf (Abutilon theophrasti); experiment: Test C pre-/postemergence: velvetleaf; details: Preemergence
How it was run: as §2

[8] = tested on: kochia (Kochia scoparia); experiment: Test C pre-/postemergence: kochia; details: Preemergence
How it was run: as §2

[9] = tested on: corn (Zea mays); experiment: Test C pre-/postemergence: corn; details: Preemergence
How it was run: as §2

[10] = tested on: morningglory (Ipomoea spp.); experiment: Test A pre-/postemergence: morningglory
How it was run: as §1

[11] = tested on: large crabgrass (Digitaria sanguinalis); experiment: Test C pre-/postemergence: large crabgrass; details: Preemergence
How it was run: as §2

[12] = tested on: blackgrass (Alopecurus myosuroides); experiment: Test C pre-/postemergence: blackgrass; details: Preemergence
How it was run: as §2

[13] = Postemergence, 125 g ai/ha, 0 to 100 scale, 0 is no effect, 100 is complete control
[14] = Postemergence, 500 g ai/ha, visual rating on 0 to 100 scale (0 no effect, 100 complete control), approximately ten days
[15] = Preemergence, 500 g ai/ha, 0 to 100 scale (0 no effect, 100 complete control)
[16] = 31 g ai/ha, scale of 0 to 100, 0 is no effect, 100 is complete control
[17] = 62 g ai/ha, scale of 0 to 100, 0 is no effect, 100 is complete control
[18] = 125 g ai/ha, scale 0 to 100, 0 no effect, 100 complete control
[19] = 250 g ai/ha, scale 0 to 100, 0 no effect, 100 complete control

Cc1nn(-c2ccc(F)c(C(F)(F)F)c2)nc1Oc1ccnc(C(F)(F)F)c1 [Compound 147]
Plant response rating, Velvetleaf [1, 13]: 50 | Velvetleaf plant response rating [1, 14]: 90 | Plant response rating, Velvetleaf ([1]; Preemergence, 125 g ai/ha, 0 to 100 scale where 0 is no effect and 100 is complete control): 20 | Plant response rating, Velvetleaf [1, 15]: 50 | Plant response rating, Pigweed [2, 16]: 100 | Plant response rating, Pigweed [2, 17]: 100 | Plant response rating, Pigweed [2, 18]: 100 | Plant response rating, Pigweed [2, 19]: 100 | Plant response rating, Galium [3, 16]: 100 | Plant response rating, Galium [3, 17]: 100 | Plant response rating, Galium [3, 18]: 100 | Plant response rating, Galium [3, 19]: 100 | Plant response rating, Oat, Wild [4, 16]: 60 | Plant response rating, Oat, Wild [4, 17]: 70 | Plant response rating, Oat, Wild [4, 18]: 85 | Plant response rating, Oat, Wild [4, 19]: 95 | Plant response rating, Johnsongrass [5, 16]: 40 | Plant response rating, Johnsongrass [5, 17]: 55 | Plant response rating, Johnsongrass [5, 18]: 95 | Plant response rating, Johnsongrass [5, 19]: 98 | Plant response rating, Ragweed [6, 16]: 25 | Plant response rating, Ragweed [6, 17]: 40 | Plant response rating, Ragweed [6, 18]: 70 | Plant response rating, Ragweed [6, 19]: 80 | Plant response rating, Velvetleaf [7, 16]: 25 | Plant response rating, Velvetleaf [7, 17]: 55 | Plant response rating, Velvetleaf [7, 18]: 60 | Plant response rating, Velvetleaf [7, 19]: 100 | Plant response rating, Kochia [8, 16]: 35 | Plant response rating, Kochia [8, 17]: 40 | Plant response rating, Kochia [8, 18]: 80 | Plant response rating, Kochia [8, 19]: 85 | Plant response rating, Corn [9, 16]: 10 | Plant response rating, Corn [9, 17]: 10 | Plant response rating, Corn [9, 18]: 25 | Plant response rating, Corn [9, 19]: 35 | Plant response rating, Morningglory [10, 13]: 90 | Morningglory plant response rating [10, 14]: 90 | Plant response rating, Morningglory [10, 15]: 80 | Plant response rating, Crabgrass, Large [11, 16]: 98 | Plant response rating, Crabgrass, Large [11, 17]: 100 | Plant response rating, Crabgrass, Large [11, 18]: 100 | Plant response rating, Crabgrass, Large [11, 19]: 100 | Plant response rating, Blackgrass [12, 16]: 50 | Plant response rating, Blackgrass [12, 17]: 85 | Plant response rating, Blackgrass [12, 18]: 90 | Plant response rating, Blackgrass [12, 19]: 90
